Calls of active or inactive are those of the source. The calls are words filed in the database; no cut-off is given here.
What was measured:
HepG2 = test: Inhibition of mitochondrial function in human HepG2 cells assessed as reduction in ATP production; assay type: functional, cell-based
[1] = Microsomal stability in rat liver microsome assessed as half life; assay type: ADME; settings: liver microsomes
[2] = Microsomal stability in human liver microsome assessed as half life; assay type: ADME, microsomes; settings: for half-life: liver microsomes
Cytochrome P450 3A4 [3] = biological target: T1, Cytochrome P450 3A4 (Homo sapiens, UniProt P08684); test: Inhibition of CYP3A4 (unknown origin); assay type: ADME
Cytochrome P450 3A4 [4] = biological target: T1, Cytochrome P450 3A4; test: Inhibition of CYP3A4 (unknown origin) in presence of NADPH; assay type: ADME
[5] = biological target: 5'-AMP-activated protein kinase; test: Activation of AMPK in mouse C2C12 cells incubated for 2 hrs; assay type: cell-based
hERG (KCNH2) = hERG (KCNH2) (Homo sapiens, UniProt Q12809); test: Inhibition of hERG at 10 uM relative to control; assay type: toxicity
[6] = Activation of AMPK in human HepG2 cells incubated for 2 hrs; assay type: cell-based; settings: HepG2, 2 h
[7] = Clearance in rat; assay type: ADME; settings: in vivo
NCI-H1299 = test: Cytotoxicity against human NCI-H1299 cells assessed as reduction in cell growth; assay type: functional, cell-based
Mus musculus [8] = test: Antidiabetic activity against po dosed db/db mouse model of type 2 diabetes assessed as reduction in blood glucose level administered for 15 days by OGTT test; assay type: functional, organism-based; settings: dose 10-15 mg/kg, time 15.0 day
A549 = test: Cytotoxicity against human A549 cells assessed as reduction in cell growth; assay type: functional, cell-based
Mus musculus [9] = test: Antidiabetic activity against po dosed db/db mouse model of type 2 diabetes assessed as reduction in insulin level administered for 15 days by OGTT test; assay type: functional, organism-based; settings: dose 10-15 mg/kg, time 15.0 day
[10] = Volume of distribution at steady state in rat at 5 mg/kg, po or 1 mg/kg, iv measured upto 10 hrs; assay type: ADME, organism-based; settings: in vivo
[11] = Dissociation constant, pKa of compound; assay type: physicochemical
Mus musculus [12] = test: Antidiabetic activity against db/db mouse model of type 2 diabetes assessed as reduction in blood glucose AUC at 15 mg/kg, po administered for 15 days and measured on day 13 by OGTT test; assay type: functional, organism-based; settings: time 13.0 day
Mus musculus [13] = test: In vivo activation of AMPK in C57BL/6J mouse assessed as increase ACC substrate level in liver at 10 mg/kg, po measured for 30 mins by Western blot analysis; assay type: functional, organism-based
[14] = Oral bioavailability in rat at 5 mg/kg measured upto 10 hrs; assay type: ADME, organism-based; settings: in vivo
[15] = Half life in rat at 5 mg/kg, po or 1 mg/kg, iv measured upto 10 hrs; assay type: ADME, organism-based; settings: in vivo
Mus musculus [16] = test: In vivo activation of AMPK in C57BL/6J mouse assessed as increase in AMPK phosphorylation in liver at 10 mg/kg, po measured for 30 mins by Western blot analysis; assay type: functional, organism-based
Mus musculus [17] = test: Antidiabetic activity against po dosed db/db mouse model of type 2 diabetes assessed as improvement in glucose handling administered for 15 days and measured on day 13 by OGTT test; assay type: functional, organism-based; settings: dose 10-15 mg/kg, time 13.0 day
[18] = AUC in rat at 5 mg/kg, po measured upto 10 hrs; assay type: ADME, organism-based; design: time < 10 hrs, dose 5 mg/kg, route po; settings: in vivo
[19] = Drug concentration in C57BL/6J mouse plasma at 10 mg/kg, po measured at 30 mins; assay type: ADME, organism-based
[20] = biological target: Voltage-gated inwardly rectifying potassium channel KCNH2 (Homo sapiens, UniProt Q12809); test: Inhibition of hERG; assay type: toxicity
Voltage-gated inwardly rectifying potassium channel KCNH2, sequence (Q12809 whole entry): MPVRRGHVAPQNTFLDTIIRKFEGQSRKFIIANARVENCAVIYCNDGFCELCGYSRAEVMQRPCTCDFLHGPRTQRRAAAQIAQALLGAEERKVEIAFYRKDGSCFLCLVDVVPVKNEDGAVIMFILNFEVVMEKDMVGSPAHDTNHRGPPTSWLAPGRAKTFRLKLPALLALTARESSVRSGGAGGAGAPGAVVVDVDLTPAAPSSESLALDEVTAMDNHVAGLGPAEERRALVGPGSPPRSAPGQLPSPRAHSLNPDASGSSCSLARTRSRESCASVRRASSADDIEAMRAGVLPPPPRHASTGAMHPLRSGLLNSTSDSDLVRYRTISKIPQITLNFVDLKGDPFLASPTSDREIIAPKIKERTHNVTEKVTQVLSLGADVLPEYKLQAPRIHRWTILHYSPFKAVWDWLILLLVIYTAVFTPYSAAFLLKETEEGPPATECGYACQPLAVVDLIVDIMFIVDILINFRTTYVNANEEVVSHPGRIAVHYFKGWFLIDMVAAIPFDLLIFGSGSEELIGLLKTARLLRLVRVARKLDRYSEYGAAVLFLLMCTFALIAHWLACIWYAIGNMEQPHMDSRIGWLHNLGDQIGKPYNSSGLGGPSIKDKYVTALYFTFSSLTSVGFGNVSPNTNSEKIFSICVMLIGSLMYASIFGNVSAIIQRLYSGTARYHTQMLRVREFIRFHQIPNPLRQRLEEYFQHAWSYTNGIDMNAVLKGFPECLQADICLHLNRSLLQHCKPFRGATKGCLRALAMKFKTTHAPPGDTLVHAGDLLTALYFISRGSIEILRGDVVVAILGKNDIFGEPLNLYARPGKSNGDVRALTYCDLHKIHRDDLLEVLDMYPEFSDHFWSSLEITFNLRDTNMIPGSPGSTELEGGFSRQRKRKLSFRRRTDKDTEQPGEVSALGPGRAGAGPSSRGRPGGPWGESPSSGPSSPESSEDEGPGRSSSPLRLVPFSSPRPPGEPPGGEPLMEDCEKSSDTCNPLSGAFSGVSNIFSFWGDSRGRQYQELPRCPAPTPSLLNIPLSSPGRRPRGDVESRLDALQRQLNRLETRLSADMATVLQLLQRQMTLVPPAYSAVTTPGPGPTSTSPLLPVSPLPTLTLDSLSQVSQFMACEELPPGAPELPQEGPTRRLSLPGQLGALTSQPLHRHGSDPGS

hERG (KCNH2), sequence (Q12809 whole entry): as above
T1 sequence (P08684 whole entry): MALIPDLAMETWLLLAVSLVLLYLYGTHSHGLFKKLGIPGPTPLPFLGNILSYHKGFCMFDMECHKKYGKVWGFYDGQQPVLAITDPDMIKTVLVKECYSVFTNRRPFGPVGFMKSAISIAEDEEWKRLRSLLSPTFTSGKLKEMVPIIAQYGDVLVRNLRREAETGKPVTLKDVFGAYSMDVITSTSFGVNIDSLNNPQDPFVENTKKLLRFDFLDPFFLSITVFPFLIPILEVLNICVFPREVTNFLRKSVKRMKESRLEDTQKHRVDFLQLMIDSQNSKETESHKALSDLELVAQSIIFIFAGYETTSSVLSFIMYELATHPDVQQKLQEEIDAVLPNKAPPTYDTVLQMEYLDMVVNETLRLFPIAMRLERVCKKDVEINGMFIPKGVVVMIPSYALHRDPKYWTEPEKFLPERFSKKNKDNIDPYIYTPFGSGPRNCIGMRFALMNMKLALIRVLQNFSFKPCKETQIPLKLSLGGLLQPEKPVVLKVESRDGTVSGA

Row | IC50 (HepG2) [nM] | half-life [1] [h] | half-life [2] [h] | IC50 (Cytochrome P450 3A4 [3]) [nM] | IC50 (Cytochrome P450 3A4 [4]) [nM] | EC50 [5] [nM] | EC50 [6] [nM] | clearance [7] [mL/min/kg] | Compound | inhibition at 10 µM (hERG (KCNH2)) [%] | other results
1 | 941 | 0.15 | 0.383 | 10000 | 900 | 82 | 22 | – | COc1ccc(C(=O)C2CCN(C(=O)c3ccc(C(=O)N[C@@H]4CCN(Cc5ccc(C#N)cc5)C[C@@H]4C)cn3)CC2)cc1 | 46.9 | –
2 | 466 | – | – | – | – | 143 | 17 | 62 | COc1ccc(C(=O)C2CCN(C(=O)c3ccc(C(=O)N[C@@H]4CCN(Cc5ccc(C#N)cc5)C[C@@H]4C(F)(F)F)cn3)CC2)cc1 | – | –
3 | 983 | – | – | – | – | 236 | 65 | 145 | COc1ccc(C(=O)C2CCN(C(=O)c3ccc(C(=O)N[C@H]4CCN(Cc5ccc(C#N)cc5)C[C@@H]4C)cn3)CC2)cc1 | – | –
4 | 1170 | 1.47 | 1.9 | > 10000 | > 10000 | 161 | 62 | 17 | COc1ccc(C(=O)C2CCN(C(=O)c3ccc(C(=O)N[C@H]4CCN(Cc5ccc(C#N)cc5)C[C@@H]4F)cn3)CC2)cc1 (relative stereo) | 69.2 | IC50 (NCI-H1299): > 20000 nM; Activity (Mus musculus [8]): Dose-Dependent Effect; IC50 (A549): > 20000 nM; Activity (Mus musculus [9]): Dose-Dependent Effect; Vdss [10]: 2.2 L/kg; pKa [11]: 4.9; Activity (Mus musculus [12]): Active; Activity (Mus musculus [13]): Active; bioavailability [14]: 55%; half-life [15]: 3.1 h; Activity (Mus musculus [16]): Active; Activity (Mus musculus [17]): Dose-Dependent Effect; AUC at 10 h [18]: 2350 ng·h/mL; concentration at 0.5 h [19]: 638 ng/mL
5 | 390 | – | – | – | – | 598 | 32 | 40 | COc1ccc(C(=O)C2CCN(C(=O)c3ccc(C(=O)NC4CCN(Cc5ccc(C#N)cc5)CC4(C)C)cn3)CC2)cc1 (centres undefined) | – | –
6 | 800 | 4.95 | 8.23 | > 10000 | > 10000 | 193 | 47 | 33 | COc1ccc(C(=O)C2CCN(C(=O)c3ccc(C(=O)N[C@@H]4CCN(Cc5ccc(C#N)cc5)C[C@@H]4F)cn3)CC2)cc1 | 67.4 | pKa [11]: 4.9
7 | 2820 | – | – | > 10000 | > 10000 | 137 | 31 | 150 | COc1ccc(C(=O)C2CCN(C(=O)c3ccc(C(=O)NC4CCN(Cc5ccc(C#N)cc5)CC4)cn3)CC2)cc1 | – | IC50 [20]: 4700 nM; pKa [11]: 7.4
8 | 256 | 2.48 | 1.23 | > 10000 | > 10000 | 50 | 28 | – | COc1ccc(C(=O)C2CCN(C(=O)c3ccc(C(=O)NC4CCN(Cc5ccc(C#N)cc5)CC4(F)F)cn3)CC2)cc1 (centres undefined) | 65 | pKa [11]: 2.5
9 | – | – | – | – | – | – | 464 | – | COc1ccc(C(=O)C2CCN(C(=O)c3ccc(C(=O)N[C@H]4CCN(Cc5ccc(C#N)cc5)[C@H](C(F)(F)F)C4)cn3)CC2)cc1 | – | –

Further lines, the molecule ahead of its results:

Row | Compound | IC50 (HepG2) [nM] | half-life [1] [h] | half-life [2] [h] | IC50 (Cytochrome P450 3A4 [3]) [nM] | IC50 (Cytochrome P450 3A4 [4]) [nM] | EC50 [5] [nM] | EC50 [6] [nM] | clearance [7] [mL/min/kg] | inhibition at 10 µM (hERG (KCNH2)) [%] | other results
10 | COc1ccc(C(=O)C2CCN(C(=O)c3cc(C)c(C(=O)NC4CCN(Cc5ccc(C#N)cc5)CC4)cn3)CC2)cc1 | 1460 | 0.7 | 1.72 | > 10000 | > 10000 | 110 | 22 | 38 | 59.8 | –
11 | N#Cc1ccc(CN2CC[C@H](NC(=O)c3ccc(C(=O)N4CCC(C(=O)c5ccc(N6CCOCC6)cc5)CC4)nc3)[C@@H](F)C2)cc1 | 2690 | 1.22 | 2.63 | – | – | 217 | 70 | – | – | –
12 | COc1ccc(C(=O)C2CCN(C(=O)c3ccc(C(=O)N(C)C4CCN(Cc5ccc(C#N)cc5)CC4)cn3)CC2)cc1 | 28 | – | – | – | – | – | 21 | 74 | – | –
13 | COc1ccc(C(=O)C2CCN(C(=O)c3cc(C)c(C(=O)NC4CCN(Cc5ccc(OC)c(F)c5)CC4)cn3)CC2)cc1 | 976 | 0.9 | 1.12 | – | – | 27 | 14 | 33 | 58.4 | –
14 | COc1ccc(CN2CCC(NC(=O)c3cnc(C(=O)N4CCC(C(=O)c5ccc(OC)cc5)CC4)cc3C)CC2)cc1 | 3370 | 0.917 | 4.72 | – | – | 84 | 25 | 40 | 62.5 | –
15 | N#Cc1ccc(CN2CC[C@H](NC(=O)c3ccc(C(=O)N4CCC(C(=O)c5ccc(-n6cccn6)cc5)CC4)nc3)[C@@H](F)C2)cc1 | 887 | 1.75 | – | – | – | 87 | 29 | 19 | 98.4 | Stability ([2]; microsomes): Stable
16 | COCCN(C(=O)c1ccc(C(=O)N2CCC(C(=O)c3ccc(OC)cc3)CC2)nc1)C1CCN(Cc2ccc(C#N)cc2)CC1 | 1470 | – | – | – | – | 654 | 78 | – | 26.5 | –
17 | COc1ccc(C(=O)C2CCN(C(=O)c3cc(C(F)(F)F)c(C(=O)NC4CCN(Cc5ccc(C#N)cc5)CC4)cn3)CC2)cc1 | 456 | 0.733 | 1.48 | > 10000 | 2800 | 28 | 10 | 35 | – | –
18 | COc1ccc(C(=O)C2CCN(C(=O)c3cc(F)c(C(=O)NC4CCN(Cc5ccc(C#N)cc5)CC4)cn3)CC2)cc1 | 31 | – | – | – | – | 9 | 1 | – | – | –

— ChEMBL document CHEMBL5375990, “Optimization of Pharmacokinetic and In Vitro Safety Profile of a Series of Pyridine Diamide Indirect AMPK Activators” (J Med Chem, 2023)
